Experiments:
[1] = test system: dU50 (RNA, aptamer, 2'-deoxyuridine at 37 (U50 in full-length numbering)) GGGGAGAAGGACGGGUCCAGUGCGAAACACGCACUGUUGAGUAGAGUGUGAGCUCCC; test: fluorescence activation titration, Hill fit; settings: 100 mM K+, 5 mM Mg2+; 30 nM RNA; 10 mM Tris pH 7.5
[2] = test system: G28A (RNA, aptamer) GGACGCGACCGAAAUGGUGAAGGACGGAUCCAGUGCGAAACACGCACUGUUGAGUAGAGUGUGAGCUCCGUAACUGGUCGCGUC; test: fluorescence activation titration, Hill fit; settings: 100 mM K+, 5 mM Mg2+; 30 nM RNA; 10 mM Tris pH 7.5

## CC1=N/C(=C\c2cc(F)c(O)c(F)c2)C(=O)N1C
[1]
  KD: 1.1 ± 0.3 µM
[2]
  KD: 4.4 ± 0.8 µM

From PMC4104137 (2014)
